Source: PubChem BioAssay (NCI)
Several values for one entry are separate records, joined by “and”; a condition that tells them apart may be missing. Identical values can stand only once.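 Each compound was tested at five concentrations against cells in 96-well plates for 48 hours. The concentration for 50% growth inhibition is given as GI50. The concentration for full growth arrest is given as TGI.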

What was measured:
Assay in all cases: NCI tumour cell line growth inhibition, 48 h
HS 578T breast = tested on: HS 578T breast
ACHN renal = tested on: ACHN renal
UACC-62 melanoma = tested on: UACC-62 melanoma
NCI-H23 lung = tested on: NCI-H23 lung
MDA-MB-435 = tested on: MDA-MB-435
SF-268 CNS = tested on: SF-268 CNS
SNB-75 CNS = tested on: SNB-75 CNS
T-47D breast = tested on: T-47D breast
786-0 renal = tested on: 786-0 renal
LOX IMVI melanoma = tested on: LOX IMVI melanoma

SMILES	GI50 (HS 578T breast)	TGI (HS 578T breast)	GI50 (ACHN renal)	TGI (ACHN renal)	GI50 (UACC-62 melanoma)	TGI (UACC-62 melanoma)	GI50 (NCI-H23 lung)	TGI (NCI-H23 lung)	GI50 (MDA-MB-435)	TGI (MDA-MB-435)	GI50 (SF-268 CNS)	TGI (SF-268 CNS)	GI50 (SNB-75 CNS)	TGI (SNB-75 CNS)	GI50 (T-47D breast) [µM]	TGI (T-47D breast)	GI50 (786-0 renal)	TGI (786-0 renal) [µM]	GI50 (LOX IMVI melanoma)	TGI (LOX IMVI melanoma)
O=C(Nc1ccc(F)cc1)c1cc(S(=O)(=O)Nc2nc3ccccc3o2)c(SCc2ccccc2)cc1Cl	19.1 µM	44.5 µM	17.5 µM	32.2 µM	14.4 µM	27.6 µM	19.5 µM	36.9 µM	16.3 µM	30.7 µM	17.9 µM	43.1 µM	24.3 µM	56.9 µM	28.3	> 100 µM	18.5 µM	35.3	18 µM	34.2 µM
[N-]=[N+]=Nc1cc(=O)[nH]nc1-c1ccccc1	–	> 100 µM	–	> 100 µM	–	> 100 µM	–	> 100 µM	–	> 100 µM	–	> 100 µM	–	> 100 µM	–	> 100 µM	–	> 100	–	> 100 µM
N#CC1=C(N)Oc2cc(O)ccc2C1c1cccc2ccccc12 (configuration not stated)	16.6 µM	73 µM	17.2 µM	35 µM	12.6 µM	27.3 µM	10.2 µM	22.6 µM	2.51 µM	6.68 µM	14.5 µM	40.4 µM	14.1 µM	32.9 µM	17.2	58.7 µM	13.4 µM	29.8	14.8 µM	35.4 µM
COc1ccc(-n2c(C)cc(-c3ccccc3)c2C)cc1	4.58 µM	> 100 µM	2.82 µM	33.3 µM	2.01 µM	12.8 µM	2.16 µM	16.2 µM	1.56 µM	5.58 µM	4.46 µM	33.3 µM	3.37 µM	> 100 µM	1.65	67.2 µM	1.94 µM	4.85	2.55 µM	11.9 µM
CCOC(=O)/C=C(/C)Sc1cc(O)c2ccccc2c1O	2.26 µM	6.58 µM	2.78 µM	9.82 µM	3.67 µM	14 µM	2.07 µM	5.67 µM	1.75 µM	3.28 µM	4.24 µM	14.6 µM	2.55 µM	6.94 µM	2.23	13.1 µM	15.2 µM	28.6	2.14 µM	> 23.1 µM
COc1ccc(-c2coc3c4c(ccc3c2=O)OCO4)cc1OC	–	> 100 µM	–	> 100 µM	–	> 100 µM	–	> 100 µM	–	> 100 µM	–	> 100 µM	–	> 100 µM	–	> 100 µM	–	> 100	–	> 100 µM
O=C(CSC1CCc2ccccc21)N/N=C/c1ccccc1O (configuration not stated)	11.7 µM	67.2 µM	2.67 µM	20 µM	2.82 µM	13.6 µM	9.83 µM	> 100 µM	5.87 µM	> 100 µM	3.33 µM	> 100 µM	5.52 µM	> 100 µM	7.04	> 100 µM	6.87 µM	> 100	2.37 µM	21.5 µM
CSc1ccc2c(c1)C(=O)c1c-2n(CCCBr)c(=O)c2cc([N+](=O)[O-])ccc12	> 100 µM	> 100 µM	1.61 µM	8.4 µM	3.1 µM	> 100 µM	8.03 µM	> 100 µM	31 µM	> 100 µM	7.42 µM	> 100 µM	7.9 µM	> 100 µM	17.8	> 100 µM	2.45 µM	10.5	2.11 µM	41.5 µM
COc1cc2c3c(n(CCCOC(=O)C(F)(F)F)c(=O)c2cc1OC)-c1cc2c(cc1C3=O)OCO2	52.7 µM	> 100 µM	< 0.01 µM	–	< 0.01 µM	–	< 0.0158 µM	< 0.045 µM	0.0232 µM	3.69 µM	–	> 32.2 µM	0.0726 µM	> 100 µM	–	> 28.2 µM	< 0.01 µM	< 0.0241	< 0.01 µM	0.0371 µM
COc1ccc(O)c(C(=O)c2ccc(C(=O)N[C@H]3CCCNC[C@@H]3NC(=O)c3ccncc3)cc2)c1F	0.0882 µM	12.5 µM	11.5 µM	> 25 µM	9.26 µM	> 25 µM	2.63 µM	> 25 µM	> 14.9 µM	> 25 µM	1.75 µM	> 20.6 µM	0.0135 µM	–	0.463	> 25 µM	3.07 µM	> 20.2	7.38 µM	> 25 µM
Cc1nn(C(=O)c2ccc(Cl)cc2)c2c1C(/C=C/c1ccccc1)SC(N)=N2 (configuration not stated)	–	> 10 µM	–	> 10 µM	–	> 10 µM	–	> 10 µM	–	> 10 µM	–	> 10 µM	–	> 10 µM	–	> 10 µM	–	> 10	–	> 10 µM
OCc1ccn2c1[C@@H](O)CC2	–	> 100 µM	–	> 100 µM	–	> 100 µM	–	> 100 µM	–	> 100 µM	–	> 100 µM	–	> 100 µM	–	> 100 µM	–	> 100	–	> 100 µM
CC[C@H]1CN2CCc3cc(OC)c(OC)cc3[C@@H]2C[C@@H]1C[C@H]1NCCc2c1[nH]c1ccc(O)cc21	–	0.0653 µM and 0.0327 µM	0.0782 µM and 0.121 µM	0.57 µM and 0.511 µM and 1.5 µM	0.0249 µM and 0.0448 µM	–	0.0177 µM and 0.0303 µM	0.0472 µM and 0.112 µM and 0.0706 µM	–	0.261 µM	0.0315 µM and 0.0253 µM	0.0931 µM and 0.075 µM and 0.263 µM	0.032 µM and 0.0223 µM	0.111 µM and 0.0732 µM and 0.0544 µM	0.0233	0.0897 µM and 0.0583 µM	0.0246 µM and 0.0421 µM	–	0.00434 µM and 0.0207 µM	0.0223 µM and 0.0902 µM and < 0.0107 µM
c1ccc2c(c1)c1c(c3ccccc32)CN2CCCC2C1 (configuration not stated)	–	13.8 µM	–	9.35 µM	–	12.8 µM	–	10.3 µM	–	31.6 µM	–	13.2 µM	–	35.3 µM	–	> 100 µM	–	23.1	–	9.46 µM
O=C1NC(=O)/C(=C\c2ccccc2)C2=C1CCCC2	3.46 µM	22.8 µM	5.78 µM	18.6 µM	3.13 µM	9.13 µM	2.63 µM	8.33 µM	1.82 µM	3.49 µM	4.06 µM	14.8 µM	11.9 µM	24.7 µM	10.2	29.9 µM	7.6 µM	20.2	1.85 µM	4.06 µM
O=S(=O)(Nc1ccc(F)cc1F)c1ccc(-c2cnc(C3CC3)o2)cc1	0.545 µM	22.7 µM	1.62 µM	31.2 µM	0.358 µM	23.3 µM	1.75 µM	68.9 µM	0.14 µM	2.72 µM	4.82 µM	> 70.4 µM	0.219 µM	1.25 µM	0.443	52.8 µM	0.906 µM	63	0.588 µM	22 µM
Cc1cc(C)c(NC(=O)c2sc3nc4c(cc3c2N)CN(Cc2ccccc2)CC4)c(C)c1	2.66 µM	65.9 µM	6.31 µM	> 100 µM	3.9 µM	42.4 µM	4.51 µM	> 100 µM	0.399 µM	4.38 µM	6.93 µM	64.8 µM	2.35 µM	11 µM	2.62	> 100 µM	3.48 µM	> 100	5.01 µM	18.1 µM
OCCCNc1nccc(-c2c(-c3ccc(F)cc3)nn3cc(C(F)(F)F)ccc23)n1	19.2 µM	> 25 µM	9.23 µM	> 25 µM	15.1 µM	> 25 µM	> 25 µM	> 25 µM	10.1 µM	> 25 µM	16.3 µM	> 25 µM	> 13.4 µM	> 25 µM	8.42	> 23.4 µM	10.2 µM	> 25	15.3 µM	> 25 µM
CCOC(=O)c1c(NC(=O)c2cccc(C(F)(F)F)c2)sc2c(CN(C)C)c(O)ccc12	6.78 µM	26.4 µM	4.49 µM	15.8 µM	1.71 µM	3.17 µM	13.1 µM	32.1 µM	3.15 µM	12.9 µM	4.69 µM	24.1 µM	11.1 µM	26.8 µM	3.74	21.4 µM	2.33 µM	6.1	2.7 µM	7.52 µM
C=C1C(=O)O[C@H]2[C@H]1CC/C(COC(=O)/C=C\C(=O)NCc1ccc(Cn3c(=O)sn(CCCC)c3=O)cc1)=C\CC[C@@]1(C)O[C@@H]21	1.3 µM	3.32 µM	0.299 µM	0.994 µM	1.2 µM	2.53 µM	1.4 µM	2.89 µM	0.513 µM	1.77 µM	1.39 µM	2.78 µM	0.697 µM	2.19 µM	1.27	4.22 µM	1.2 µM	2.56	0.179 µM	0.379 µM
Cc1[nH]c(/C=C2\C(=O)Nc3ccccc32)c(C)c1CCC(=O)O	9.45 µM	51.9 µM and > 100 µM	–	> 100 µM	17.7 µM	58.1 µM and 95.6 µM	20.3 µM	73.4 µM and > 100 µM	23.5 µM	84.2 µM and > 100 µM	25.1 µM	> 100 µM	–	56.1 µM and 59.8 µM	–	> 100 µM	44.1 µM	> 100	23.1 µM	75.9 µM and 89.2 µM
COc1cc(C(=O)N2CCN(c3ncccn3)CC2)c(N)cc1OCc1ccccc1	> 100 µM	> 100 µM	> 100 µM	> 100 µM	> 100 µM	> 100 µM	> 100 µM	> 100 µM	> 100 µM	> 100 µM	> 100 µM	> 100 µM	50.7 µM	> 100 µM	> 100	> 100 µM	> 100 µM	> 100	> 100 µM	> 100 µM
CCOc1ccncc1[N+](=O)[O-]	–	> 100 µM	–	> 100 µM	–	> 100 µM	–	> 100 µM	–	> 100 µM	–	> 100 µM	–	> 100 µM	–	> 100 µM	–	> 100	–	> 100 µM
Cc1nn(C(=O)Cc2ccccc2)c2c1C(c1ccc(Cl)cc1)SC(N)=N2 (configuration not stated)	–	> 100 µM	–	> 100 µM	–	> 100 µM	–	> 100 µM	–	> 100 µM	–	> 100 µM	–	96.9 µM	–	> 100 µM	–	> 100	–	> 100 µM
CN1C(=O)/C(=C/c2c(Cl)n(C)c3ccccc23)c2ccccc21	3.46 µM and 2.42 µM	9.29 µM and 5.34 µM	4.85 µM and 1.7 µM	3.11 µM	2.8 µM	–	1.92 µM and 1.56 µM	5.96 µM and 2.94 µM	1.89 µM and 1.69 µM	4 µM and 3.13 µM	9.2 µM	–	4.51 µM and 1.96 µM	3.62 µM	–	0.825 µM	3.09 µM	–	4.79 µM	–
CCn1sc2ccccc2c1=O	–	32.4 µM	–	20.5 µM	–	29.5 µM	–	34.7 µM	–	5.82 µM	–	34.6 µM	–	26.6 µM	–	35.2 µM	–	6.87	–	7.73 µM
COc1cc(OC)c(/C=C/c2c3ccccc3cc[n+]2C)c(OC)c1	2.43 µM	37.5 µM	10.9 µM	> 100 µM	1.51 µM	9.58 µM	1.29 µM	25.8 µM	0.781 µM	10.1 µM	2.54 µM	19.3 µM	1.27 µM	8.01 µM	0.541	> 26.2 µM	7.37 µM	> 100	2.01 µM	5.9 µM
CC(=O)Oc1ccccc1C(=O)Nc1ncc([N+](=O)[O-])s1	1.94 µM	9.97 µM and > 37.5 µM	2.74 µM	11.3 µM and > 100 µM	1.23 µM	6.71 µM and > 47.3 µM	1.8 µM	6.39 µM and > 63 µM	2.13 µM	7.58 µM and 59.7 µM	3.35 µM	> 79.7 µM	1.6 µM	7.13 µM and > 67.9 µM	2.88	> 26.6 µM and 60.3 µM	2.35 µM	–	2.74 µM	14.5 µM and > 100 µM
